# In US20150320773A1, “TREATMENT OF INFLAMMATION” (Vascular Biogenics Ltd., priority 2011, published 2015):
# Legend:
# [1] = test system: Human monocytes (CD14+ cells); test: In vitro cell migration (trans-well chemotaxis) assay of human monocytes; type: cell-based
# Description: Following incubation, cells were loaded to the upper chamber and allowed to migrate for 3.5 hours towards 0.5% fetal bovine serum/RPMI-1640 medium supplemented with recombinant human MCP-1 and RANTES (50 ng/ml each).
# In order to further ascertain the significance of ERK1/2 phosphorylation and MEK1/2 phosphorylation to monocyte chemotaxis, the effect of the RAF inhibitor GW5074, which reduces MEK and ERK phosphorylation, on monocyte chemotaxis was determined in a trans-well migration assay using a combination of MCP-1 ([…]) and RANTES (70 ng/ml) as attractant. Monocytes were pre-treated with 5 μM GW5074 for 30 minutes prior to seeding in the migration chamber.
# For this purpose, monocytes from healthy donors were pre-incubated for 30 min with either solvent (0.005% ethanol/PBS), phosphatidylcholine (PC; 5 μg/ml), partially oxidized PAPC (24 h oxidation; 40 μg/ml) or PGPC (5 μg/ml), and allowed to migrate towards recombinant human MCP-1 (CCL2; ligand for CCR2) and RANTES (CCL5; ligand for CCR1, CCR3, CCR5, US28) as attractants (50 ng/ml each). […]
# [2] = test system: Human monocyte-derived dendritic cells (DCs); test: cAMP accumulation assay; type: cell-based; details: 4 hours; VB-201 1-5 μg/ml; oxidized PAPC escalating doses; forskolin positive control
# Description: Cells were incubated for 4 hours at 37° C. in the presence of the phosphodiesterase inhibitors IBMX (Calbiochem; 0.5 mM) and RO-20-1724 (Biomol; 0.5 mM) to prevent cAMP degredation. For the quantification of [^3H]cAMP formation, the incubation was terminated by removal of the medium and addition of 2.5% perchloric acid containing 0.1 mM unlabeled cAMP (Sigma), followed by neutralization with 4.2 M KOH and 1.85 M K2CO3.
# monocytes = test: Monocyte adhesion assay (TNFα-stimulated HUVEC); type: cell-based, human; details: 1-10 μg/ml VB-201; compared to the solvent control
# Description: Matrix plates were pre-seeded with HUVEC and subjected to 4 hour stimulation with 10 ng/ml TNFα to induce expression of adhesion molecules. Freshly isolated monocytes were stained for 30 minutes with 5 µM calcein AM (Invitrogen) in serum free RPMI and then washed twice with PBS to remove excess dye. […] 10^5 stained monocytes were loaded per well into 96-well dishes and allowed to adhere for 15 minutes. Following 4 washes with PBS, adherent monocyte intensity was read using FLUOROSKAN Ascent FL device using excitation at 485 nm and emission at 538 nm.
# Next, we examined whether VB-201 or oxidized PAPC treatment of monocytes affects their interaction with endothelial cells. HUVEC were plated in 96-wells and treated with TNFαc to induce expression of adhesion molecules. […] Following extensive washes, adherent monocytes were quantified by fluorescence.
# TLR4 = molecular target: T1, TLR4 (Mus musculus, UniProt Q9QUK6)
# T1 sequence (Q9QUK6 26-835): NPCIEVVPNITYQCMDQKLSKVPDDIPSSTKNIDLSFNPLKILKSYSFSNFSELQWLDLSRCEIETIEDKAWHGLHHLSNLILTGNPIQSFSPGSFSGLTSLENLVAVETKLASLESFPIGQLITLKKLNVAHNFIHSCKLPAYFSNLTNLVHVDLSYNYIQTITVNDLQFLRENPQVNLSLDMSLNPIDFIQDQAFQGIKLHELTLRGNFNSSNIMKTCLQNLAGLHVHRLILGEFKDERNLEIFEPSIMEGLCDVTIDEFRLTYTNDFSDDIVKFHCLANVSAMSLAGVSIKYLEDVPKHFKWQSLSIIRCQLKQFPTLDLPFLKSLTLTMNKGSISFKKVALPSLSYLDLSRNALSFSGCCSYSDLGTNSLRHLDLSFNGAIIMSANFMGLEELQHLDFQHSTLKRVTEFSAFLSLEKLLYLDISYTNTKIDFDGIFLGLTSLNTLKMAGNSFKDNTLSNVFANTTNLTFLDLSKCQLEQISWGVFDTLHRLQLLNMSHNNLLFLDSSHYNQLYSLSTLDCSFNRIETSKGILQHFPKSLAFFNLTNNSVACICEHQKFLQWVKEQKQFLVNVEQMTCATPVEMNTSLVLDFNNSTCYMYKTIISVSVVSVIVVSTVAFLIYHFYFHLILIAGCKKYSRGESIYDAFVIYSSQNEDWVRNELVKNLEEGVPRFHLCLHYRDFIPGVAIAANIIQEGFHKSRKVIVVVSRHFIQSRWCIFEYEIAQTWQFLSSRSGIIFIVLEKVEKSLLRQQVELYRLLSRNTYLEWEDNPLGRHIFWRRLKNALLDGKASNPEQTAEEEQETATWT
# T1 sequence (Q9JHF9 19-160 partner): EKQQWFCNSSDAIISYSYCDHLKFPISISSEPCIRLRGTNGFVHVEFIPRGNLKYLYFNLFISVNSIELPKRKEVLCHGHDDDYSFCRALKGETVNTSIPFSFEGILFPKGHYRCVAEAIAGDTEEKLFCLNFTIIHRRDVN
# Description: Cells were washed and re-suspended in lysis buffer containing 1:100 dithiothreitol (DTT) (Bio-Lab), and phosphatase and protease inhibitors (Thermo Scientific). Samples were loaded on a precasted Criterion TGX gel (BIO-RAD, UK) and transferred onto nitrocellulose membrane. Blots were blocked with 5% milk or bovine serum albumin (BSA) in TBST (Tris buffer saline with TWEEN 20) for 1 hour, followed by incubation with primary and secondary antibodies. Membranes were developed using the ECL kit (Thermo Scientific).
# Toll-like receptors were activated in mouse BMDCs (bone marrow dendritic cells) by specific agonists, and the effect of receptor activation was determined via Western blot for phosphorylation of p38 MAP kinase, which is downstream of TLRs.
# [3] = test system: phosphorylation of Akt, MEK1/2, ERK1/2 and p38 in human monocytes; details: stimulation with MCP-1, MIP-1α or RANTES; shown in WO 2011/083469; cited from earlier work
# human monocytes = test: ROS formation in human monocytes (DCF, FACS); type: cell-based; details: overnight; VB-201 10 μg/ml, PGPC 10 μg/ml, OxPAPC 100 μg/ml; relative to PBS
# Description: Detection of ROS was performed through FACS quantification of the oxidation product dichlorodihydrofluorescein (DCF). Data are mean±SD from 3-4 experiments performed in duplicates. FIG. 23B is a histogram from a representative experiment showing DCF levels in treated cells.
# TLR7 = TLR7 (Mus musculus, UniProt P58681); details: mouse BMDCs; R848; 1.7, 8.5 or 17 μM
# Chain of TLR7 (P58681 27-1050): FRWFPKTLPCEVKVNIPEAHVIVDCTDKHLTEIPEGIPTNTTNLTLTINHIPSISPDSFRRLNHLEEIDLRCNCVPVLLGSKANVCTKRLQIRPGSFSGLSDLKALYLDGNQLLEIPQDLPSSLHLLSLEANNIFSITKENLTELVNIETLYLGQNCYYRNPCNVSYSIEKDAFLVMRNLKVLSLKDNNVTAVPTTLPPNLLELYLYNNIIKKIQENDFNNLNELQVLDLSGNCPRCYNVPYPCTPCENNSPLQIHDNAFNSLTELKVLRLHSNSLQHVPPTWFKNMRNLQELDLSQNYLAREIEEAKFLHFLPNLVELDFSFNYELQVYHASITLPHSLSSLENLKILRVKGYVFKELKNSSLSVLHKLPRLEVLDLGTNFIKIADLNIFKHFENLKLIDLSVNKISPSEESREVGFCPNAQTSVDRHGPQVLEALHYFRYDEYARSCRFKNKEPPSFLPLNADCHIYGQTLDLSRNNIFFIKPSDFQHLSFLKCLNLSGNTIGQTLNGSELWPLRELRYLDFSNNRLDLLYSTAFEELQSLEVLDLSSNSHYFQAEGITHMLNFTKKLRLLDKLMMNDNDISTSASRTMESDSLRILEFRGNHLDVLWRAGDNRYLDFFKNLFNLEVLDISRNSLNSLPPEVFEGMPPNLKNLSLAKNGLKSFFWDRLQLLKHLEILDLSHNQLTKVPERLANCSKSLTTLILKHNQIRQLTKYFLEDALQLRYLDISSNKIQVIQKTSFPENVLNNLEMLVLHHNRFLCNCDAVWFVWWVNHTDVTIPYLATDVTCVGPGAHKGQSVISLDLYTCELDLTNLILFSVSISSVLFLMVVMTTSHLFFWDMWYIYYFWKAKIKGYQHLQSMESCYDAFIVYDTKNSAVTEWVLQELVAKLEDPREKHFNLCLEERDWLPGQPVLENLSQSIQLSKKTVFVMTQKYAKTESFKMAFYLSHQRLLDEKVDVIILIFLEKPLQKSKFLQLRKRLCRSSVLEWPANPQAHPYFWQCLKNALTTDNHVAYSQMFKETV
# [4] = test system: phosphorylation of Akt, MEK1/2, ERK1/2 and p38 in human monocytes; test: Chemokine-induced signaling in human monocytes, Western blot
# Description: Untreated cells were used as reference for MCP-1 activation. Following treatment, cells were washed twice, harvested with lysis buffer and analyzed by SDS-PAGE. […] Alpha Tubulin levels serve as loading control.
# [5] = 5 μg/ml VB-201, MCP-1 and MCP-3-stimulated cells
compound,measurement,setting,value
"CCCCCCCCCCCCCCCCOC[C@H](COP(=O)([O-])OCC[N+](C)(C)C)OCCCCC(=O)O [VB-201, (R)-1-hexadecyl-2-(4′-carboxyl)butyl-sn-glycero-3-phosphocholine]",C-reactive protein-induced chemotaxis of human monocytes,"[1]; 8.5 μM VB-201, 30 min, 50 ug/ml CRP, 3.5 hours, p<0.01",inhibit chemotaxis induced by CRP
same,reduction of monocyte chemotaxis towards MCP-1 and RANTES (50 ng/ml each),"[1]; 30 min pre-incubation, PC 5 μg/ml, partially oxidized PAPC 40 μg/ml, PGPC 5 μg/ml, VB-201 5 μg/ml",profound inhibition of monocyte chemotaxis
same,"reduction of monocyte migration, MCP-1 as chemoattractant","[1]; VB-201 5 μg/ml, MCP-1 50 ng/ml, compared to solvent control",approximately 80%
same,"reduction of monocyte migration, MIP-1α as chemoattractant","[1]; VB-201 5 μg/ml, MIP-1α 50 ng/ml, compared to solvent control",~68%
same,"reduction of monocyte migration, RANTES as chemoattractant","[1]; VB-201 5 μg/ml, RANTES 100 ng/ml, compared to solvent control",~72%
same,monocyte chemotaxis towards the compound (cell attractant in lower chamber),[1]; data not shown,no monocyte chemotaxis towards VB-201 occurred
same,inhibition of monocyte migration towards HUVEC growth medium,[1]; dose of 5 μg/ml,about 60%
same,monocyte migration towards HUVEC growth medium,[1]; escalating doses,reduced the number of migrating cells in a dose-dependent fashion
same,intracellular cAMP levels,[2],not affected
same,monocyte adhesion to HUVEC,monocytes,had no effect on their adhesion to HUVEC
same,LPS-induced signaling,TLR4; RAW 264.7 murine macrophages,inhibited LPS-induced signaling in a dose-dependent manner
same,p38 phosphorylation following activation of TLR4,"TLR4; mouse BMDCs, LPS, 1.7, 8.5 or 17 μM",inhibited p^38 phosphorylation in a dose-dependent manner
same,"activation of p38, ERK1/2 and the NFκB pathway following activation of TLR4","TLR4; mouse peritoneal macrophages, LPS, 1.7, 8.5 or 17 μM","inhibited activation of p38, ERK1/2 and the NFκB pathway in a dose-dependent manner"
same,ERK1/2 phosphorylation and MEK1/2 phosphorylation,[3],inhibition by VB-201 of ERK1/2 phosphorylation and MEK1/2 phosphorylation
same,ROS formation in human monocytes,human monocytes,no effect on ROS formation
same,p38 phosphorylation following activation of TLR7,TLR7,no apparent effect
same,ERK1/2 phosphorylation in stimulated monocytes,[4]; 50 ng/ml RANTES,inhibited ERK1/2 phosphorylation
same,phosphorylation levels of ERK1/2,"[4]; 5 μg/ml VB-201, Fractalkine-stimulated cells",considerable reduction
same,phosphorylation levels of Akt,[4]; [5],considerable reduction
same,phosphorylation levels of ERK1/2,[4]; [5],considerable reduction
same,phosphorylation levels of MEK1/2,[4]; [5],considerable reduction
same,phosphorylation levels of p38,[4]; [5],but not in phosphorylation levels of p38
same,ERK1/2 phosphorylation in monocytes pre-stimulated with MCP-1 overnight,"[4]; 8.5 μM VB-201 for 2, 5 or 15 min, 10 ng/ml MCP-1, 16 hrs",reduction of ERK1/2 phosphorylation in starting at 5 min
